Read-outs that look alike come from different tables or passages of the source.
Assays:
[1] = biological target: recombinant human dual expressed Avi PRMT5/His-MEP50 protein (Homo sapiens (Human), UniProt O14744); experiment: HTRF binding assay in presence of MTA; details: 30 μM MTA
Method: The PRMT5 binding activity of compounds of the present invention was determined using an HTRF binding assay or SPR assay.
A recombinant human dual expressed Avi PRMT5/His-MEP50) protein (corresponding to amino acids for PRMT5 2-637, and 2-342 for MEP50 expressed in baculovirus) was incubated with target fragments in final buffer (25 mM ADA pH 7.2, 30 μM MTA, 1 mM TCEP, 50 mM NaCl, 0.002% Tween, 5 nM proprietary Tracer binding compound prepared in-house), overnight at 2-8° C. After overnight incubation the binding is monitored after the addition of 0.5 nM Anti-His-Tb (Cisbio) after 1 hr incubation at RT (˜20-24 hrs total binding time). The HTRF signal was measured using a Clariostar reader (BMG) excitation filter (Ex Tr), dichroic filter (LP TP) and emission filters (F 665-10 and F 620-10) manufacturer's instructions. The HTRF ratio was calculated using the formula: [emission 665/emission 620]*10000.

[2] = biological target: PRMT5•SAM (biotinylated PRMT5-MEP50) (Homo sapiens (Human), UniProt O14744); experiment: SPR binding assay, SAM running buffer; details: 20 μM SAM running buffer
Method: (§1) SPR screening was performed in MTA running buffer (25 mM Bicine pH 7.6, 100 mM NaCl, 1 mM TCEP, 20 μM MTA, 0.05% Tween-20 and 2% DMSO). The biotinylated PRMT5-MEP50 surface was equilibrated with MTA running buffer for 12 hours prior to the start. […] Subsequently, compound titration was repeated in SAM-running buffer (25 mM Bicine pH 7.6, 100 mM NaCl, 1 mM TCEP, 20 μM SAM, 0.05% Tween-20, and 2% DMSO). […] After double referencing, the steady-state response was extracted for each fragment concentration and was fit to the Langmuir isotherm equation to determine the equilibrium dissociation constant (KD).

PRMT5/MEP50 complex = PRMT5/MEP50 complex (Homo sapiens (Human), UniProt O14744); experiment: PRMT5:MEP50 FlashPlate Assay; type: biochemical
Method: The PRMT5 inhibitory activity of compounds of the present invention was determined using a PRMT5:MEP50 FlashPlate Assay (Reaction Biology Corporation).
The assay uses purified human, PRMT5 enzyme to convert S-adenosyl-L-[methyl-^3H]methionine plus histone H4 L-arginine to S-adenosyl-L-homocysteine plus histone H4 [methyl-^3H]-L-arginine. The assay was carried out using Streptavidin-coated FlashPlates (Perkin Elmer), which contained a scintillant embedded in the plastic of the plate. The histone H4 peptide substrate was conjugated with biotin, which binds to the streptavidin-coated well of the plate, placing the H4 peptide in close proximity to the side well and the scintillant. The transfer of the tritiated methyl group from S-adenosyl-L-[methyl-^3H]methionine to the bound histone H4 peptide generated a radiolabeled histone H4, which was quantitated by measuring in a scintillation counter to determine the activity of PRMT5 enzyme in the presence and absence of compound. […] Briefly, compounds of the present invention were solubilized in 100% DMSO at a highest concentration of 10 mM. For IC, determinations, the initial starting concentration for the serial dilutions of each compound was 50 μM. Control samples lacking compound, PRMT5/MEP50 complex or various reaction components also were prepared and processed in parallel with compound test samples. SAH was used as a positive control for assay validation. To measure PRMT5 inhibitory activity, 3 nM PRMT5/MEP50 complex (Reaction Biology Corporation) was preincubated with test compound in assay buffer containing 40 nM histone H4 peptide (amino acids 1-15)-Biotin conjugate for 20 min at room temperature. The enzymatic reaction was initiated by adding 1 μM tritiated S-adenosyl methionine (final concentration) and the reaction is allowed to proceed for 20 min. The reaction was stopped and the amount of bound, tritiated H4 peptide in each sample was determined using a scintillation counter. The IC50 value for each compound was calculated from each 10-point dose-response curve for samples plus and minus MTA using GraphPad Prism software and the results for exemplary compounds of Formula (I) is shown in Table 9a.

[3] = biological target: PRMT5•MTA (biotinylated PRMT5-MEP50) (Homo sapiens (Human), UniProt O14744); experiment: SPR binding assay, MTA running buffer; details: 20 μM MTA running buffer
Method: as §1

[4] = histone H4 peptide, absence of MTA, read-out: IC50
[5] = read-out: IC50 + 2 μM MTA, histone H4 peptide, presence of 2 μM MTA

PRMT5/MEP50 complex, sequence (O14744 whole entry): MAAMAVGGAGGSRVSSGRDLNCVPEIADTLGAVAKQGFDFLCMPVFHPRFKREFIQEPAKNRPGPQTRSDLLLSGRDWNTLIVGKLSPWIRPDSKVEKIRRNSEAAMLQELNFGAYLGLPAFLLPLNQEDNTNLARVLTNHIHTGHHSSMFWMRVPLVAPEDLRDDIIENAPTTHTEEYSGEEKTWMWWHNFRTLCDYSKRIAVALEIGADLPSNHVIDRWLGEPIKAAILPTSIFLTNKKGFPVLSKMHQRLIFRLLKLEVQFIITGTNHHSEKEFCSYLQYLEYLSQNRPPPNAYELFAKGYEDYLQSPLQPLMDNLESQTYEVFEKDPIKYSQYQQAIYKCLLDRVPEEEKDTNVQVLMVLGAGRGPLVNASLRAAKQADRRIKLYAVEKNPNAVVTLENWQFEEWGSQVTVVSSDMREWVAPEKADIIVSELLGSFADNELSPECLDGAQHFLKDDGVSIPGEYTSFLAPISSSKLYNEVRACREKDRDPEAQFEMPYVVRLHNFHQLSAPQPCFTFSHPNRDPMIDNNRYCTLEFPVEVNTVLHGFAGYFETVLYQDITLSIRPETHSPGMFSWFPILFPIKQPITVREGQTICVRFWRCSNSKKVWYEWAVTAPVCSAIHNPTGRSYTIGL
PRMT5/MEP50 complex, sequence (Q9BQA1 whole entry partner): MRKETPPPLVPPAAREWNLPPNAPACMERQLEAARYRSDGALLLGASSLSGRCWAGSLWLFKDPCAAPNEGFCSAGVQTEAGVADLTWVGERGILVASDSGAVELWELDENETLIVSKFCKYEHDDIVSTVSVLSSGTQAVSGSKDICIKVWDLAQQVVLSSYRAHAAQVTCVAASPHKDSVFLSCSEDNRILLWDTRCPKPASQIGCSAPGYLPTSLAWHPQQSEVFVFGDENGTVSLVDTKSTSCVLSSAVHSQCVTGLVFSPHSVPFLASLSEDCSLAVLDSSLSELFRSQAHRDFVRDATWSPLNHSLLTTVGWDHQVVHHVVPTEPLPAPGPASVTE
PRMT5•MTA (biotinylated PRMT5-MEP50), sequence (O14744 whole entry): as the sequence (O14744 whole entry) above
PRMT5•MTA (biotinylated PRMT5-MEP50), sequence (Q9BQA1 whole entry partner): as the sequence (Q9BQA1 whole entry partner) above
PRMT5•SAM (biotinylated PRMT5-MEP50), sequence (O14744 whole entry, the tested form may be a part): as the sequence (O14744 whole entry) above
PRMT5•SAM (biotinylated PRMT5-MEP50), sequence (Q9BQA1 whole entry partner, the tested form may be a part): as the sequence (Q9BQA1 whole entry partner) above
recombinant human dual expressed Avi PRMT5/His-MEP50 protein, sequence (O14744 2-637): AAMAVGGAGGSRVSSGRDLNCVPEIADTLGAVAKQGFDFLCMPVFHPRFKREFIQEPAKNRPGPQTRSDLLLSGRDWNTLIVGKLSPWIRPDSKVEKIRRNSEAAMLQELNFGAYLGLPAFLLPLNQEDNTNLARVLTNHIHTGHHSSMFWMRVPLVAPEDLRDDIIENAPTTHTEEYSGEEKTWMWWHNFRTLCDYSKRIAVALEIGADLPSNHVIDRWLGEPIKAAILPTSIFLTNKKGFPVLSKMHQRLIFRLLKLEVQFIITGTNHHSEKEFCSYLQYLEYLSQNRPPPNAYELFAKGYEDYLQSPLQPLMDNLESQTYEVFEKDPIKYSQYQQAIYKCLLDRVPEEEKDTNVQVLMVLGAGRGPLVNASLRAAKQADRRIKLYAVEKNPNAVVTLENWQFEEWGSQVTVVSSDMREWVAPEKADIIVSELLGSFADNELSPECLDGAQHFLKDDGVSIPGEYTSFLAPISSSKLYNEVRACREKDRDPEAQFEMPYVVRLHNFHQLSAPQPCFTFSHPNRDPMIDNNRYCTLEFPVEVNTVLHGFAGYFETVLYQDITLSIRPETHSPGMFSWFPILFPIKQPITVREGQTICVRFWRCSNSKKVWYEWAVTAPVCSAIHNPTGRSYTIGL
recombinant human dual expressed Avi PRMT5/His-MEP50 protein, sequence (Q9BQA1 2-342 partner): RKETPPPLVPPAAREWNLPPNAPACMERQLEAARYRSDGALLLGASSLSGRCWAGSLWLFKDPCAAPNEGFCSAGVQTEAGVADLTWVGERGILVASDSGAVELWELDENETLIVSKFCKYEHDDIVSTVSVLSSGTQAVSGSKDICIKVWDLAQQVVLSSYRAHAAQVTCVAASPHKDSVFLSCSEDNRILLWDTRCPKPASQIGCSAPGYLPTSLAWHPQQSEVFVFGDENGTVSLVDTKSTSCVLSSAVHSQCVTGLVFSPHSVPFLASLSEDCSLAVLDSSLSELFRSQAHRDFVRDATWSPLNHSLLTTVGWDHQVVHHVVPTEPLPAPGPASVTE

Row | SMILES | IC50 [1] | Kd [2] | IC50 (PRMT5/MEP50 complex; [4]) | IC50 (PRMT5/MEP50 complex; [5]) | Kd [3] | IC50 (PRMT5/MEP50 complex; IC50 + 2 μM MTA, histone H4 peptide, presence of 2 μM MTA)
1 | Nc1nc2cc(CNC(=O)c3ccncn3)[nH]c2cc1Br [Example 8-2, N-[(5-amino-6-bromo-1H-pyrrolo[3,2-b]pyridin-2-yl)methyl]pyrimidine-4-carboxamide] | 13 nM | 137 nM | 5790 nM | 362 nM | 9 nM | –
2 | Cc1cc2[nH]c(-n3cnc(Br)c3)cc2nc1N [Example 13-3, 2-(4-bromoimidazol-1-yl)-6-methyl-1H-pyrrolo[3,2-b]pyridin-5-amine] | 2360 nM | 2010 nM | > 300000 nM | – | 680 nM | 131000 nM
3 | Nc1nc2cc(NC(=O)c3ccccc3)[nH]c2cc1Br [Example 12-1, N-(5-amino-6-bromo-1H-pyrrolo [3,2-b]pyridin-2-yl)benzamide] | 1410 nM | 6290 nM | > 100000 nM | > 100000 nM | 2540 nM | –
4 | Nc1nc2cc(NC(=O)c3ccccc3F)[nH]c2cc1Br [Example 12-4, N-(5-amino-6-bromo-1H-pyrrolo[3,2-b]pyridin-2-yl)-2-fluoro-benzamide] | 1620 nM | 4950 nM | 100000 nM | 48900 nM | 1890 nM | –
5 | CC(=O)N(C)Cc1cc2nc(N)c(C)cc2[nH]1 [Example 14-4, N-((5-amino-6-methyl-1H-pyrrolo[3,2-b]pyridin-2-yl)methyl)-N-methylacetamide] | 124 nM | 80 nM | 170000 nM | 1240 nM | 17 nM | –
6 | Cc1cc(N)nc2cc(Cc3ccccc3Cl)cnc12 [Example 2-3, 7-(2-chlorobenzyl)-4-methyl-1,5-naphthyridin-2-amine] | 1310 nM | 31500 nM | > 300000 nM | > 300000 nM | 4680 nM | –
7 | Cc1cc(N)nc2cc(CNC(=O)c3cc(NC4CC4)ncn3)cnc12 [Example 7-4, N-[(6-amino-8-methyl-1,5-naphthyridin-3-yl)methyl]-6-(cyclopropylamino)pyrimidine-4-carboxamide] | 29 nM | 81 nM | 18200 nM | 1660 nM | 22 nM | –
8 | Cc1cc2[nH]c(N3CC(=O)N(C)C3=O)cc2nc1N [Example 13-4, 1-(5-amino-6-methyl-1H-pyrrolo[3,2-b]pyridin-2-yl)-3-methyl-imidazolidine-2,4-dione] | 50600 nM | 30900 nM | > 300000 nM | > 300000 nM | 10700 nM | –
9 | Cc1cc(N)nc2cc(CN3C(=O)c4ccccc4C3=O)cnc12 [Example 7-6, 2-[(6-amino-8-methyl-1,5-naphthyridin-3-yl)methyl]isoindoline-1,3-dione] | 21 nM | 105 nM | > 300000 nM | 745 nM | 12 nM | –
10 | Cc1cc2[nH]c(-n3cncn3)cc2nc1N [Example 13-1, 6-methyl-2-(1,2,4-triazol-1-yl)-1H-pyrrolo[3,2-b]pyridin-5-amine] | 1280 nM | 1180 nM | > 300000 nM | 176000 nM | 510 nM | –
11 | Cc1cc(N)nc2cc(CNC(=O)c3ccccc3)cnc12 [Example 8-1, N-[(6-amino-8-methyl-1,5-naphthyridin-3-yl)methyl]benzamide] | 9 nM | 33 nM | 4290 nM | 419 nM | 5 nM | –

— patent US20240368153A1, “Aminopyridine-based MTA-Cooperative PRMT5 Inhibitors” (Mirati Therapeutics, Inc., priority 2021, published 2024)
